In ChEMBL document CHEMBL1687697 (ACS Med Chem Lett, 2010):
Calls of active or inactive are those of the source. The rule behind the calls is not given here.

Target: Signal transducer and activator of transcription 3 (Homo sapiens) (UniProt P40763)
Assay: Inhibition of STAT3 in human HeLa cells after 24 hrs by luciferase reporter gene assay
Type: cell-based

Chain of Signal transducer and activator of transcription 3 (Homo sapiens) (P40763 whole entry): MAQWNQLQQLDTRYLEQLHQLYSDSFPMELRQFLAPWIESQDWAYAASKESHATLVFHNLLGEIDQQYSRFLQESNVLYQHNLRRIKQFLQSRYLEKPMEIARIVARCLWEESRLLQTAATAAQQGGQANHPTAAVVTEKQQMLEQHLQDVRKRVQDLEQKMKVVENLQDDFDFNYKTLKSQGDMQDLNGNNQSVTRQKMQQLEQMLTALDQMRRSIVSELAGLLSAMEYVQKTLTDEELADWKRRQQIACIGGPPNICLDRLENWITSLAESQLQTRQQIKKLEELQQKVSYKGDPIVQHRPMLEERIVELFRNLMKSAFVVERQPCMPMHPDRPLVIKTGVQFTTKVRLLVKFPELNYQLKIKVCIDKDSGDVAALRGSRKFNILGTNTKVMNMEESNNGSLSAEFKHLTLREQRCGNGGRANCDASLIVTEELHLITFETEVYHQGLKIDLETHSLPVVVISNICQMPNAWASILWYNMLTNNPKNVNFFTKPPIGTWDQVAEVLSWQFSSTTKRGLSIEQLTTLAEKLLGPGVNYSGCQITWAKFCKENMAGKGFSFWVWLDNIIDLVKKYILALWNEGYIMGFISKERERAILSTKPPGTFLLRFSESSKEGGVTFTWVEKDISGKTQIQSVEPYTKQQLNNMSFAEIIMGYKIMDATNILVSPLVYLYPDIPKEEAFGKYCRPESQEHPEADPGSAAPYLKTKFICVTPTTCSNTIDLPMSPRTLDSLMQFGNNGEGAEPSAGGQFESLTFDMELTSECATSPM

COc1ccc(C(=O)N2CCCC2=O)cc1
inhibition: inactive
